Calls of active or inactive are those of the source.
Columns and labels:
[1] = biological target: T1, Estrogen receptor (Homo sapiens, UniProt P03372); test: ERα coactivator recruitment enhancers – biochemical, TR-FRET, ERα LBD, dose response (AID 737)
T1 sequence (P03372 whole entry): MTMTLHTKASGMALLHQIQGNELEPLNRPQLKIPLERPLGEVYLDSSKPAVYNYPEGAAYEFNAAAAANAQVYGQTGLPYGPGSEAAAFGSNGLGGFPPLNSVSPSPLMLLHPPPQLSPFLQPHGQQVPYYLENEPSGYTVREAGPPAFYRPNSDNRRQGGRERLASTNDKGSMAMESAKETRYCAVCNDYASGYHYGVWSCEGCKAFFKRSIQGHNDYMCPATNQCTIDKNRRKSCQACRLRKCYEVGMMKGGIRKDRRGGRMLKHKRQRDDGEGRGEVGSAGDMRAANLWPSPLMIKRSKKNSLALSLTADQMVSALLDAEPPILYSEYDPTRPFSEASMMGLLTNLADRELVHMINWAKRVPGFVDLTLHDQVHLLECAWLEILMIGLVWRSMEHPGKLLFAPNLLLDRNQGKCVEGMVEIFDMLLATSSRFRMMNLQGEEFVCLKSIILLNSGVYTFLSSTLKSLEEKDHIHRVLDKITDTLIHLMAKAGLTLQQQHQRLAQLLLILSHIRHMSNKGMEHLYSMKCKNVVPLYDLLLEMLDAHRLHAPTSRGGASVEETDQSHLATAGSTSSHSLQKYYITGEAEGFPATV

[2] = biological target: Protein-tyrosine kinase 2-beta (Homo sapiens, UniProt Q14289);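 note: potency of inhibitors of PYK2 kinase phosphorylation of poly-GT substrate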
Protein-tyrosine kinase 2-beta, sequence (Q14289 whole entry): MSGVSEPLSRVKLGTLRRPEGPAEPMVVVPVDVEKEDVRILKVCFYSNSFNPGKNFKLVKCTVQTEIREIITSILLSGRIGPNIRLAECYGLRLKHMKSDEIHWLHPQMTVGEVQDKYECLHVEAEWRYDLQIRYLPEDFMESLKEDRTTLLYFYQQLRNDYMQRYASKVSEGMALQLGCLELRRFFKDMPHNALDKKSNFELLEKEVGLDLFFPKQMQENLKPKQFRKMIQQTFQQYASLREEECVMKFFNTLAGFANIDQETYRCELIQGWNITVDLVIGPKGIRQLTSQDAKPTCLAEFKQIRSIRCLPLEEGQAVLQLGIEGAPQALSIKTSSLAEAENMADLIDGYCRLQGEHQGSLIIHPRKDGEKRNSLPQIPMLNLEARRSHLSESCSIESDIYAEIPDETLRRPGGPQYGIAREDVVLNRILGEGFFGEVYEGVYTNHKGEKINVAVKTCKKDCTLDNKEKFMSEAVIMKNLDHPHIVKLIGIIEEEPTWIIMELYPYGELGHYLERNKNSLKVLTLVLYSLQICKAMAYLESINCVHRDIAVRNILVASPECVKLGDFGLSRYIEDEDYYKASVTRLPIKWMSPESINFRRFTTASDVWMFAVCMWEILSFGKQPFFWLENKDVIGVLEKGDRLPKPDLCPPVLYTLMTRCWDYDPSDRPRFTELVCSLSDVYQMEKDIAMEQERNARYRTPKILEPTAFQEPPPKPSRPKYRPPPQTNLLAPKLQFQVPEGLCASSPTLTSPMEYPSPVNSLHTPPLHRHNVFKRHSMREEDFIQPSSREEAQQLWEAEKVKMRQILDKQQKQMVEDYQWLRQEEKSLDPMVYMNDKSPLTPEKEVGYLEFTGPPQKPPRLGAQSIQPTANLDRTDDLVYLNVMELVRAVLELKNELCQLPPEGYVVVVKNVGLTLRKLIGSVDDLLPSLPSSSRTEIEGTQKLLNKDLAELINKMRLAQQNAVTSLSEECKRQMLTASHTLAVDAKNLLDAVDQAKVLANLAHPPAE

[3] = biological target: Epstein-Barr nuclear antigen 1 (Epstein-Barr virus (strain B95-8) (HHV-4) (Human herpesvirus 4), UniProt P03211); test: inhibition of EBV nuclear antigen 1 DNA binding – biochemical, fluorescence polarization, 1536-well, dose response (AID 2381); design: species or system human gammaherpesvirus 4;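 note: fluorescence polarization of a Cy5 DNA probe bound by EBNA-1 protein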
Epstein-Barr nuclear antigen 1, sequence (P03211 whole entry): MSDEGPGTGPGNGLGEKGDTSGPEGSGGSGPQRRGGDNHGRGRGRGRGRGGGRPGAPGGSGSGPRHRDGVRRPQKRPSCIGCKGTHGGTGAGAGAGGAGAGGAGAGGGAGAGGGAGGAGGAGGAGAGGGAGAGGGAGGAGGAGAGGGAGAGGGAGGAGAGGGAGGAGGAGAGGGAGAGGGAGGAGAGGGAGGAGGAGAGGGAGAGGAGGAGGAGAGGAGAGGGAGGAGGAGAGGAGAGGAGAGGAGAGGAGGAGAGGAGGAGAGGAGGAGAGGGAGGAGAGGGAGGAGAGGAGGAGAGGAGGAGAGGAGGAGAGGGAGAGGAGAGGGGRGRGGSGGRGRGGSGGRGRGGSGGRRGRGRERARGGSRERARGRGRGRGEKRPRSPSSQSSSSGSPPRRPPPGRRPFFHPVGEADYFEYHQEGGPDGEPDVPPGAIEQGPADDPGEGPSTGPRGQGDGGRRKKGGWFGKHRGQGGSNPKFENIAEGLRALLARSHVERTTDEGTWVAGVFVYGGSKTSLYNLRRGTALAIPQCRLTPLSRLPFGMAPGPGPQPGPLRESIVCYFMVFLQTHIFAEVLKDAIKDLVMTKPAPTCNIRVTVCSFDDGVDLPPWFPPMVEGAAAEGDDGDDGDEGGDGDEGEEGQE

[4] = biological target: Lytic switch protein BZLF1 (Epstein-Barr virus (strain B95-8) (HHV-4) (Human herpesvirus 4), UniProt P03206); test: inhibition of BZLF1 ZTA DNA binding – biochemical, fluorescence polarization, Epstein-Barr virus, 1536-well, counter-screen for EBNA-1 inhibitor project, dose response (AID 2377); design: species or system human gammaherpesvirus 4;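 note: fluorescence polarization of Cy5-labelled ZRE DNA probe bound by purified Zta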
Lytic switch protein BZLF1, sequence (P03206 whole entry): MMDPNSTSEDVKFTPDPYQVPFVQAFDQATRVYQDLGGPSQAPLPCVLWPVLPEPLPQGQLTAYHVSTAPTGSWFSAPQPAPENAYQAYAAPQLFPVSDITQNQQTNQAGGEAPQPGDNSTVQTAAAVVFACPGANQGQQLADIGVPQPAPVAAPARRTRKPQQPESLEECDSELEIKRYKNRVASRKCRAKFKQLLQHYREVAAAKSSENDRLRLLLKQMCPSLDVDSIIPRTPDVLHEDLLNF

[5] = biological target: DNA dC->dU-editing enzyme APOBEC-3G (Homo sapiens, UniProt Q9HC16); assay type: functional;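 note: Dose-response counterscreen measuring inhibition of APOBEC3G DNA deaminase activity, run while confirming APOBEC3A inhibitors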
DNA dC->dU-editing enzyme APOBEC-3G, sequence (Q9HC16 whole entry): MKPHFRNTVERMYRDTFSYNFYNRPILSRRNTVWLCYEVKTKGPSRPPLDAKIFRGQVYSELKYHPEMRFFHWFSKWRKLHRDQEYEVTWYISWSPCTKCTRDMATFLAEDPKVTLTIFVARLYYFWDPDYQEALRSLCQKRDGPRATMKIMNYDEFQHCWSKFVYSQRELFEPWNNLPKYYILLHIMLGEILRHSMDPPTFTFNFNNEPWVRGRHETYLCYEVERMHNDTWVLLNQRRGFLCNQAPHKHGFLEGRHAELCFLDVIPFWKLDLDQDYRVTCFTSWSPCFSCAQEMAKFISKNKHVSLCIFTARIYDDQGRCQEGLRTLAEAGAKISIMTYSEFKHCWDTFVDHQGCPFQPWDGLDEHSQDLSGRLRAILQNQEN

[6] = biological target: DNA dC->dU-editing enzyme APOBEC-3A (Homo sapiens, UniProt P31941); test: Dose Response confirmation of small molecule APOBEC3A DNA Deaminase Inhibitors via a fluorescence-based single-stranded DNA deaminase assay. [Related pubchem assays (depositor defined):AID493011, AID493024]; assay type: functional
DNA dC->dU-editing enzyme APOBEC-3A, sequence (P31941 whole entry): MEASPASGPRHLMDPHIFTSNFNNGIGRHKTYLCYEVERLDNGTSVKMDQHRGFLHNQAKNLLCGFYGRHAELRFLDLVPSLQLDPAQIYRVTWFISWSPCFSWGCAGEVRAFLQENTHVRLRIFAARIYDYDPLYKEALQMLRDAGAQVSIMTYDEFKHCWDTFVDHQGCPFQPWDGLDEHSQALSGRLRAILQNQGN

[7] = test system: HeLa; test: Cytotoxicity counterscreen assay for transcriptional activators of heat shock protein 70 (Hsp70). [Related pubchem assays: 1203, 1252 ]; assay type: functional; conditions: Homo sapiens;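 note: cells exposed to compound for 16 hours before readout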
[8] = biological target: T2, Sphingosine 1-phosphate receptor 4 (Homo sapiens, UniProt O95977); test: Late stage fluorescence dose response cell-based screening assay for antagonists of the Sphingosine 1-Phosphate Receptor 4 (S1P4). [Related pubchem assays: 1524 (Confirmation screen (S1P4 antagonists).), 1510 (Primary screen (S1P4 antagonists).), 1853 (Summary AID (S1P4 antagonists).), 1692 (Dose response screen (S1P4 antagonists).)]; assay type: functional
T2 sequence (O95977 whole entry): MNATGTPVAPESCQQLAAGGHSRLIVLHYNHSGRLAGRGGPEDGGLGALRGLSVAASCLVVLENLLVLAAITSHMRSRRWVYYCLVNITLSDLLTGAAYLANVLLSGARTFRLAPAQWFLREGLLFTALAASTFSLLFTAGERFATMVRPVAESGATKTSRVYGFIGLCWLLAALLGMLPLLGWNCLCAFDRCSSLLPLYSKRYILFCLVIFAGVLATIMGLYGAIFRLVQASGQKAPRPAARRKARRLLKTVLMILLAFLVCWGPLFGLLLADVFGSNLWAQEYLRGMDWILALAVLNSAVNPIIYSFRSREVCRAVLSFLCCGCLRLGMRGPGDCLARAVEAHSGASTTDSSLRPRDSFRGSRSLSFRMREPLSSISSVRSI

[9] = cells; assay type: functional
[10] = fluconazole-exposed Candida albicans growth modulators – fluorescence, retest, confirmation (AID 2467); assay type: functional, cell-based
[11] = THP-1 cell cytotoxicity, dose response, cytotoxicity control for non-replicating M. tuberculosis project (AID 489025); assay type: functional
[12] = HPDE-C7 pancreatic duct cell viability loss – fluorescence, HTS (AID 430); assay type: functional, cell-based; conditions: Homo sapiens
[13] = viability of HCT116 lacking mutant beta-catenin – cell-based, human colon tumor, dose response (AID 1045); assay type: functional;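 note: HCT116 colon tumor cells with beta catenin knocked out; cells exposed to compound for 60 hours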
[14] = viability of PTEN-deleted HCT116 cells – cell-based, HCT116 PTEN knockout, dose response (AID 1047); assay type: functional;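 note: HCT116 colon tumor cells with PTEN knocked out; cells exposed to compound for 60 hours before readout; potency for loss of cell viability measured by luminescence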
[15] = Vero E6 cell cytotoxicity, dose response, cytotoxicity control for non-replicating M. tuberculosis project, secondary assay (AID 492998); assay type: functional, VeroE6; conditions: Vero C1008
[16] = NIH-3T3 fibroblast cytotoxicity, dose response, cytotoxicity control, cell-based, fluorescence, Alamar Blue, secondary assay (AID 2327); assay type: functional;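 note: NIH-3T3 mouse fibroblasts cultured with fluconazole at 8 µg/mL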
[17] = biological target: Sphingosine 1-phosphate receptor 1 (Homo sapiens, UniProt P21453); assay type: functional;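 note: Tango beta-arrestin reporter U2OS cells stimulated with S1P near its EC80; inhibitor potency meaning antagonism of receptor activation by the natural agonist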
Sphingosine 1-phosphate receptor 1, sequence (P21453 whole entry): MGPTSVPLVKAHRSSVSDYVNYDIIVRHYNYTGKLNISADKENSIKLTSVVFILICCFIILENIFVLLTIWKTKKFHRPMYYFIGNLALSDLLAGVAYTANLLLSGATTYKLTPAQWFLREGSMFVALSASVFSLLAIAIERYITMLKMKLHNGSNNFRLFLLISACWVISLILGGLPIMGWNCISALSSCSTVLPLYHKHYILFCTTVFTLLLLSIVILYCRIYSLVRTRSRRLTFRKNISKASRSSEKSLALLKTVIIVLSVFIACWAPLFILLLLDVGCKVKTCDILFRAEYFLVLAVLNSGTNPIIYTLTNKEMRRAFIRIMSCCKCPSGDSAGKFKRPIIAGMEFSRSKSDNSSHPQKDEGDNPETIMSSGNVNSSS

[18] = biological target: T2, Sphingosine 1-phosphate receptor 4; test: Fluorescence dose response cell-based high throughput screening assay for antagonists of the Sphingosine 1-Phosphate Receptor 4 (S1P4). [Related pubchem assays: 1524 (Confirmation in triplicates.), 1510 (Primary screen.)]; assay type: functional
[19] = viability loss of HPDE-C7K cells – cell-based, fluorescence, HTS, primary screen (AID 431); assay type: functional; conditions: Homo sapiens
[20] = test system: Streptococcus sp. 'group A'; test: Streptococcus pyogenes SK(-)GAS viability under kanamycin – luminescence, BacTiterGlo, confirmation, counter-screen for streptokinase expression inhibitor project, dose response (AID 1900); assay type: functional, organism-based
[21] = antiviral protection against BTV-induced cell death – arbovirus, BSR cells, confirmation (AID 1250); assay type: functional;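 note: protection from viral cytopathic effect measured as cell viability by ATP luminescence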
[22] = test system: Streptococcus; test: GAS UMAA2166 growth inhibition – luminescence, BacTiterGlo, counter-screen for streptokinase expression inhibitor project, dose response (AID 1915); assay type: functional, organism-based;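 note: potency for reduction of bacterial viability or growth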
[23] = biological target: T3, Streptokinase A (Streptococcus pyogenes serotype M1, UniProt P10520); test: viability-normalized secreted streptokinase activity reduction – plasminogen activation absorbance, OD405, dose response (AID 1914); assay type: functional, Streptococcus pyogenes M1 GAS;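 note: secreted streptokinase activity via plasminogen activation per viability signal from cell pellet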
T3 sequence (P10520 whole entry): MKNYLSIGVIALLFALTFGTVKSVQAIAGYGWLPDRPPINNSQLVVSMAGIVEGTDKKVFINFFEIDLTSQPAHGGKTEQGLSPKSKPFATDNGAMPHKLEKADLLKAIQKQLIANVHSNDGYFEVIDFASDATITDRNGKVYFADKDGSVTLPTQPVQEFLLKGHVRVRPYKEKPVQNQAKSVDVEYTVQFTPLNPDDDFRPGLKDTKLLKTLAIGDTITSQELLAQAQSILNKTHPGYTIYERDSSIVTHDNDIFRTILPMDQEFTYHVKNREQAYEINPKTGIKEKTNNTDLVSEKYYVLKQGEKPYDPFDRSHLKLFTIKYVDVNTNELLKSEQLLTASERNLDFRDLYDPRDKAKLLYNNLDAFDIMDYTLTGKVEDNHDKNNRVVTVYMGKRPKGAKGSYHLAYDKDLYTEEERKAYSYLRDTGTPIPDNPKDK

[24] = biological target: T4, fMet-Leu-Phe receptor (Homo sapiens, UniProt P21462); test: formyl peptide receptor binders – dose response (AID 519); assay type: functional
T4 sequence (P21462 whole entry): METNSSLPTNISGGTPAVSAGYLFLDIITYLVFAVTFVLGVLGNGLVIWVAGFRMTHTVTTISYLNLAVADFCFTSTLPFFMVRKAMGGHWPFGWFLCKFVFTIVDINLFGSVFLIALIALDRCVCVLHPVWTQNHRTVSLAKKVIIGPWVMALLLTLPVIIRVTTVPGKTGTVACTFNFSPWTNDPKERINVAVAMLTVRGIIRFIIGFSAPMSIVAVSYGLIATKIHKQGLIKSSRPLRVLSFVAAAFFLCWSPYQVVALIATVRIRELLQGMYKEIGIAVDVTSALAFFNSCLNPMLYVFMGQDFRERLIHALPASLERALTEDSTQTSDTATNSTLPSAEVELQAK

[25] = biological target: Troponin, cardiac muscle (Homo sapiens, UniProt P19429+P45379+P63316); test: Fluorescence-based biochemical high throughput dose response assay for activators of the calcium sensitivity of cardiac Regulated Thin Filaments (RTF). [Related pubchem assays (depositor defined):AID493008, AID493018, AID504382, AID504383]; assay type: protein-complex assay
[26] = biological target: Vasopressin V1a receptor (Homo sapiens, UniProt P37288); test: Fluorescence-based cell-based high throughput dose response screening assay for agonists of the vasopressin 1 receptor (V1R).; assay type: functional
Vasopressin V1a receptor, sequence (P37288 whole entry): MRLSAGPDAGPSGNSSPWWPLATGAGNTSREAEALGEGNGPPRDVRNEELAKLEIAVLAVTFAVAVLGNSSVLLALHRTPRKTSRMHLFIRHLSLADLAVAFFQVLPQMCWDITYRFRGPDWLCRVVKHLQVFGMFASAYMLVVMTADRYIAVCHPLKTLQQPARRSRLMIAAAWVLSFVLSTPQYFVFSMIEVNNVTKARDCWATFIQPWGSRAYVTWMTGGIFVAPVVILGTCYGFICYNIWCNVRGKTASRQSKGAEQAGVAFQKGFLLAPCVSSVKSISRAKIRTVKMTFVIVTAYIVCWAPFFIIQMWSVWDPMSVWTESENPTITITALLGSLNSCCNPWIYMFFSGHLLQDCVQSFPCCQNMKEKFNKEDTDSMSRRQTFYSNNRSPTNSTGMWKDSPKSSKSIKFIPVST

[27] = biological target: Oxytocin receptor (Homo sapiens, UniProt P30559); test: Counterscreen for vasopressin 1 receptor (V1R) agonists: Fluorescence-based cell-based high throughput dose response assay for agonists of the Oxytocin Receptor (OXTR). [Related pubchem assays: 2435 (Primary screen (OXTR agonists in singlicate)), 434964 (Confirmation screen (V1R agonists in triplicate)), 434969 (Counterscreen (OXTR agonists in …; assay type: functional
Oxytocin receptor, sequence (P30559 whole entry): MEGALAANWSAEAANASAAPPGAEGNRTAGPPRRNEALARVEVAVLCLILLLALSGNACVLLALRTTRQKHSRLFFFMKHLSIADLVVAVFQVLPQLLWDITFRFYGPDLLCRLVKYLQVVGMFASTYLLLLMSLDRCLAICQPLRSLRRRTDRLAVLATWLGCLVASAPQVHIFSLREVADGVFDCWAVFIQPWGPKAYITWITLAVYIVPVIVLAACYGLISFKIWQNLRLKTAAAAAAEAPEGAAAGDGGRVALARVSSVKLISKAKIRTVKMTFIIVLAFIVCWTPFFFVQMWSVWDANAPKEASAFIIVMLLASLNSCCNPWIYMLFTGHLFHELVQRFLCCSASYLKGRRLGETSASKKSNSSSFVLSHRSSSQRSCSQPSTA

[28] = biological target: Bcl-2-like protein 10 (Homo sapiens, UniProt Q9HD36); test: Concentration-response of Bcl-B inhibitors by biochemical FP with TR3 (AID 1243); assay type: functional
Bcl-2-like protein 10, sequence (Q9HD36 whole entry): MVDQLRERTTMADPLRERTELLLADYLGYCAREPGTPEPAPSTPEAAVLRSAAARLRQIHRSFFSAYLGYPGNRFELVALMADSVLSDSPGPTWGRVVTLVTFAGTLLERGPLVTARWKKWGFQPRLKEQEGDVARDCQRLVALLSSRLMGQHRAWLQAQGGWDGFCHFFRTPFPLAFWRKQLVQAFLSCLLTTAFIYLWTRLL

[29] = biological target: T5, Heat shock factor protein 1 (Mus musculus, UniProt P38532); test: decrease of HSF1-responsive luciferase luminescence – cell-based, NIH3T3, dose retest, confirmation (AID 2382); assay type: functional;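 note: NIH3T3 fibroblasts with HSF1-driven luciferase reporter stressed by proteasome inhibitor MG132; luminescence from HSF1-driven luciferase expression after 8 hours of MG132 stress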
T5 sequence (P38532 whole entry): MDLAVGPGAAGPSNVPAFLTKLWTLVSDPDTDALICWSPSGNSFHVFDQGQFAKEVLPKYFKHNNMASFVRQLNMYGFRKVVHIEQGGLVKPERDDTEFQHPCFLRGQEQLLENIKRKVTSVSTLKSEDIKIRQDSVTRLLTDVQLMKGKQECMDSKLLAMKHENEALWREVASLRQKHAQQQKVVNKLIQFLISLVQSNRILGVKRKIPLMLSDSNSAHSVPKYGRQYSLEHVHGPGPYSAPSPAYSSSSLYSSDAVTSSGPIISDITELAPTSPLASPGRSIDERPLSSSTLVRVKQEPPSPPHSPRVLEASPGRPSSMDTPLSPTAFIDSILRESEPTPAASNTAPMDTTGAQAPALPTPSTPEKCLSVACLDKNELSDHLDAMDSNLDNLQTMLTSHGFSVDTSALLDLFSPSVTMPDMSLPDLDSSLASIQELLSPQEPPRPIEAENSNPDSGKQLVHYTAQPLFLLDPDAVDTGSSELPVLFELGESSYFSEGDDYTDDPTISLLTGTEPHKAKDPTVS

[30] = biological target: T6, Mannose-6-phosphate isomerase (Homo sapiens, UniProt P34949); test: MPI enzyme activity inhibition – biochemical, fluorescence intensity, coupled assay, primary screen (AID 1209)
T6 sequence (P34949 whole entry): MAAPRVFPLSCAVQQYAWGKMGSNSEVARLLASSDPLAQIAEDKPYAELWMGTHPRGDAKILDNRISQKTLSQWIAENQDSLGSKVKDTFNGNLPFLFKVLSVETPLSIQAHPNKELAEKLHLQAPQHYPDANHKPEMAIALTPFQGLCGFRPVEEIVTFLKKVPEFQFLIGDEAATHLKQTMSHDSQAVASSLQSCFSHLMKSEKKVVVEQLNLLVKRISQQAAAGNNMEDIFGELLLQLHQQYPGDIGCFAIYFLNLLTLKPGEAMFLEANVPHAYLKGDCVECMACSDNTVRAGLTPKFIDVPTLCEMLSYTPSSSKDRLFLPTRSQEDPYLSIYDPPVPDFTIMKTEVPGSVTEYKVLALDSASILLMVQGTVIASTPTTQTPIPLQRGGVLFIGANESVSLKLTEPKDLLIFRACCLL

O=c1cc(-c2ccco2)oc2c1ccc1ccccc12
EC50 [1]: 12.4 µM (active) | IC50 [2]: > 69.5 µM (not active)

CN1CCN(c2ccc(-c3cccc(NC(=O)COc4ccc(Cl)cc4Cl)c3)nn2)CC1
IC50 [3]: > 148 µM (not active) | IC50 [4]: > 111 µM (not active)

COc1ccc(N=Nc2[nH]c3ccc(C)cc3c2O)cc1
IC50 [5]: 7.98 µM (active) | IC50 [6]: 8.35 µM (active) | CC50 [7]: > 33 µM (not active)

CCCS(=O)(=O)c1nnnn1-c1cccc(OC)c1
IC50 [8]: 4.51 µM (not active) | IC50 [9]: 5.35 µM (active) | EC50 [10]: 2.49 µM (active) | CC50 [11]: 17.8 µM (active) | EC50 [12]: 6.57 µM (active) | EC50 [13]: 6.66 µM (active) | EC50 [14]: 7.57 µM (active) | CC50 [15]: 11.7 µM (active) | EC50 [16]: 5.1 µM (inconclusive) | IC50 [17]: 20.1 µM (not active) | IC50 [18]: 0.951 µM (active) | EC50 [19]: 6.25 µM (active)

CCOC(=O)c1sc(=S)n2c1[nH]c(=O)c1ccc(C(=O)OC)cc12
EC50 [20]: 6.34 µM (active) | IC50 [21]: 53 µM (active) | EC50 [22]: 11.5 µM (active) | EC50 [23]: > 150 µM (not active) | Ki [24]: > 66.7 µM (inactive)

CCSC1=N/C(=C\C=C2/Oc3ccccc3N2CC)C(=O)S1
EC50 [25]: 4.53 µM (active) | EC50 [26]: > 29.9 µM (not active) | EC50 [27]: > 29.9 µM (not active)

O=C(O)Cc1c[nH]c2ccc(O)cc12
EC50 [28]: 7.88 µM (active)

Cc1nn(-c2ccccc2)c(S)c1/C=N/c1cccc([N+](=O)[O-])c1
EC50 [29]: > 195 µM (not active) | IC50 [30]: 19.1 µM (active)

From ChEMBL document CHEMBL1201862, “PubChem BioAssay data set” (2004)
